Laboratory results reported in article PMC13534789, “Molecular Glue Degraders Enhance CAPRIN1‐Dependent Lysosomal Degradation of APP and Reduce Amyloid β in Alzheimer's Disease” (Advanced Science, 2026).
In brackets after ≈: the same amount, converted by molar mass.

Assays:
[1] = Tolerability and body weight in 5xFAD mice; assay type: in vivo
Source text: Female 5xFAD transgenic mice (9–10 weeks old) were used to evaluate the efficacy of 0152 in reducing amyloid pathology. Mice were housed under Indiana University standard laboratory conditions. For intraperitoneal (IP) administration, mice received either vehicle or 0152 (indicated concentrations) in a formulation consisting of 20% DMSO, 20% Cremophor EL, and 60% PBS. For oral (PO) administration, mice received either vehicle or 0152 (indicated concentrations) in a formulation consisting of 10% NMP (N‐methyl‐2‐pyrrolidone), 10% PG (Propylene Glycol), 5% Solutol HS‐15, and 75% Captisol (10% w/v in RO water). At the end of the treatment period, mice were sacrificed, and their brains were collected for histological analysis. Brain tissues were fixed in 10% Formalin, embedded in paraffin, and sectioned. Thioflavin S staining was performed to visualize β‐sheet‐rich amyloid plaques, and immunohistochemistry was conducted using the 6E10 monoclonal antibody to detect Aβ plagues. Body weights were recorded daily throughout the study.

SUMO1 = SUMO1 protein levels (western / dot blot); assay type: cell-based, human
[2] = IV and PO pharmacokinetics in mice; assay type: in vivo, C57BL/6 male mice; settings: male; for AUC(0-t) / half-life / C0 / Tmax / Cmax: mouse plasma; for C0 / Cmax: read-out: C0/Cmax; for bioavailability: C57BL/6, mouse, plasma, oral, 10 mg/kg, PO 10 mpk vs IV 1 mpk, read-out: %F (oral bioavailability); for bioavailability / clearance / Vd: mouse; for clearance / Vd: C57BL/6, plasma, 1 mg/kg; for Vd: read-out: Vss
Procedure: IV and PO PK in rodents were processed by Sai Life Sciences Pvt. Ltd using 8‐ to 10‐week‐old C57BL/6 male mice following a single intravenous administration at 1 mg/kg and oral administration at 10 mg/kg. A total of eighteen mice (n = 9/group) were divided into two groups as Group 1 and Group 2, with a sparse sampling design (3 mice/time points). Animals in Group 1 were administered intravenously as slow bolus injections through the tail vein at 1 mg/kg dose, and animals in Group 2 were administered through the oral route at 10 mg/kg. For 0043, the formulation vehicle used for IV group was 5% NMP, 10% PG, 5% Solutol HS‐15, and 80% Captisol (10% w/v in RO water), and the formulation used for the PO group was 10% NMP, 10% PG, 10% TPGS, and 70% Captisol (10% w/v in RO water). For 0152, the formulation vehicle used for IV group was 5% DMSO, 20% Solutol HS‐15, and 75% PBS, and the formulation used for PO group was 5% NMP, 10% PG, 5% Solutol HS‐15, and 80% Captisol (10% w/v in RO water). Blood samples (approximately 60 µL) were collected under light isoflurane anesthesia (Surgivet) from retro orbital plexus from a set of three mice at 0.08, 0.25, 0.5, 1, 2, 4, 6, 8 and 24 h for IV and […], 0.5, 1, 2, 4, 6, 8 and 24 h for PO. Immediately after blood collection, plasma was harvested by centrifugation at 10 000 rpm, 10 min at […], and samples were stored at ‐70±10°C until bioanalysis. All samples were processed for analysis by the protein precipitation method and analyzed with a fit‐for‐purpose LC‐MS/MS method (LLOQ = 1.01 ng/mL). The plasma pharmacokinetic parameters were estimated using the non‐compartmental analysis tool of Phoenix WinNonlin software (Ver 8.3).

iPSC‐Ns = experiment: Cell viability / cytotoxicity of iPSC-derived neurons; assay type: cell-based, human; settings: AG27606-Ns, 10 µM, 72 h
Procedure: Cytotoxicity test was conducted using Neutral Red Uptake assay. In brief, iPSC‐Ns seeded in 96 well plates (1 × 10^5 cells/well) were treated dose‐dependently for 5 days. Cells were washed with PBS containing CaCl2 and MgCl2 followed by the addition of Neutral red solution (40 µg/mL in PBS, Sigma–Aldrich) and incubation at 37°C for 3 h. Cells were then washed with PBS containing CaCl2 and MgCl2 two times and de‐stained using with Neutral red de‐staining solution on a plate shaker for 30 min, followed by reading at 540 nm with a Microplate reader. Cell viability was determined using the CellTiter‐Glo Luminescent Cell Viability Assay (Promega) following the manufacturer's instructions. […]

Kinetic solubility assay = assay type: physicochemical; settings: for solubility at 24 h: aqueous buffer, kinetic from dmso stock, phosphate buffer pH 7.4, 24 h, room temperature, LC-MS, read-out: Solubility PBS
Procedure: 10 µL of 10 mM DMSO stock solution of test and control compounds was added to 990 µL phosphate buffer with pH 7.4. […] Samples were centrifuged, and the supernatant was transferred into a filter plate. Then, the filtrates were quantified by an LC‐MS system to get solubility results.

| SMILES | Tolerability, body weight ([1]; 80 mg/kg IP twice per day, 30 days) | Body weight ([1]; 80 mg/kg oral gavage twice daily, 30 days) | Tolerability (lethargy, ataxia, paralysis, seizures, weight loss) ([1]; 100 mg/kg IP daily, 24 days) | SUMO1 levels in neuronal cells (SUMO1; AG27606-derived neurons, 10 µM, 3 days) | AUC(0-t) ([2]; C57BL/6, 1 mg/kg, IV, 1 mpk) | half-life ([2]; C57BL/6, 1 mg/kg, IV, 1 mpk) | C0 ([2]; C57BL/6, 1 mg/kg, IV, 1 mpk) | AUC(0-t) ([2]; C57BL/6, 10 mg/kg, PO, 10 mpk) | Tmax ([2]; C57BL/6, 10 mg/kg, PO, 10 mpk) | half-life ([2]; C57BL/6, 10 mg/kg, PO, 10 mpk) | Cmax ([2]; C57BL/6, 10 mg/kg, PO, 10 mpk) | bioavailability [2] | clearance ([2]; IV, 1 mpk) | Vd ([2]; IV, 1 mpk) | Neuronal toxicity (CellTiter-Glo) (iPSC‐Ns) | Aqueous solubility by LC-MS, in words (Kinetic solubility assay) | solubility at 24 h (Kinetic solubility assay) | SUMO1 protein levels in cancer cells (SUMO1; HCT116 and LN229 cells) |
| --- | --- | --- | --- | --- | --- | --- | --- | --- | --- | --- | --- | --- | --- | --- | --- | --- | --- | --- |
| COc1cccc(NC(=O)Nc2nc3ccc(C(=O)N4CCOCC4)cc3s2)c1 [compound 0152] | well tolerated with no weight loss | no observed weight loss | tolerated treatment well | no appreciable change | 209 ng·h/mL | 25.2 min | 938 ng/mL | 624 ng·h/mL | 30 min | 144 min | 804 ng/mL | ≤ 30% | 78.6 mL/min/kg | 1.34 L/kg | without neuronal toxicity | significantly improved aqueous solubility | 0.4 µg/mL (≈ 0.97 µM) | – |
| N#Cc1cccc(NC(=O)Nc2nc3ccc(C(=O)N4CCOCC4)cc3s2)c1 [compound 0043] | – | – | – | – | 219 ng·h/mL | 9.6 min | 1380 ng/mL | 107 ng·h/mL | 15 min | 95.4 min | 97.5 ng/mL | 5% | 75.3 mL/min/kg | 0.77 L/kg | – | poor aqueous solubility | 0.06 µg/mL (≈ 0.147 µM) | no effects |
